Assays:
[1] = test system: different cell lines (CCRF-CEM, K562, Raji, Ramos, HCT116, HCT116 p53KO, A549, U2OS); assay: Peroxide formation assessment using DCFDA; assay type: cell-based, human; details: compounds at 5-fold the IC50; percentage increase versus negative control
Description: The assessment of peroxides was performed as described by Figuero et al. with some modifications. Briefly, the different cell lines, at 10,000 cells per well, were incubated in a sterile 96-well glass-bottom plate from Celvis (München, Germany), which features a black polystyrene frame with high-quality #1.5 glass, suitable for fluorescent assessment. After one hour of incubation in the incubator at 37 °C, 5% CO2, 50 µL of 20 µM 2′,7′-dichlorofluorescein diacetate (DCFDA), Thermo Fisher, was added. The cells were incubated for an additional 30 min to allow for the internalization of the fluorophore. Then, 50 µL of the compounds diluted in media at a concentration 5-fold the IC50 calculated in cytotoxic studies, were added to each well, and the plates were read on an Enspire (PerkinElmer). Fluorescence was measured using the following parameters: excitation at 495 nm and emission at 530 nm. The temperature was maintained at 37 °C, and the readings were taken in bottom mode with three readings per well. Wells containing only RPMI, with 10% FCS, were included as background negative controls. Each experiment was repeated three times on separate occasions (n = 3). Cisplatin was used as a positive control, and the values were calculated based on cells without stimuli (negative control for each cell line). Hydrogen peroxide was used as a possible early marker for apoptosis as described by Miyazato et al..

caspase 9 = assay: Caspase 9 activity in lysed HCT116 cells from 2D and spheroids; assay type: cell-based, human; details: 12 h; for Caspase 9 activity, spheroid culture: HCT116 parental spheroids, 25 µM (cisplatin 15 μM); for Caspase 9 activity, 2D culture: HCT116 parental, 25 µM
Description: The assay was designed to evaluate the impact of various compounds on caspase activity using a standardized quantity of cell protein lysates after 12 h of incubation. The parental line HCT116 served as the basis for these experiments. Three distinct caspases were examined employing the fluorescence assay kits from Calbiochem (San Diego, CA, USA), specifically a fluorometric caspase-8 assay kit and a fluorimetric caspase-3 assay kit. Additionally, the fluorometric kit from Abcam was utilized to assess caspase-9 activity. Due to the variations in protocols for each caspase, separate plates were prepared for each assay, encompassing both two-dimensional (2D) cell cultures and spheroids. The compound concentrations were established at 25 µM, and assays were conducted in quintuplicate following a 12-h incubation period. The cells were harvested from the plates using the standard trypsin-EDTA solution (Merck Sigma Aldrich, Saint Louis, MO, USA), washed, and counted before lysis, as described in each kit. Cell processing adhered to the guidelines provided by the respective companies, and protein concentration was calculated and standardized using the standard BCA assay. Fluorescent readings were captured using the Enspire apparatus (Perkin-Elmer, MA, USA). Positive controls utilized included staurosporine at a concentration of 5 μM and cisplatin at 15 μM. The kits provided their own standards; however, to normalize all the readings between cultures, types, and treatments, the results were expressed as a percentage relative to the positive control, staurosporine, in 2D culture. […] A total of three separate assays were conducted for each caspase.

CCRF-CEM = assay: Cytotoxic MTS assay, CCRF-CEM; assay type: cell-based; details: CCRF-CEM, human leukemia cell line, 72 h, median of five assays
From the text: (§1) The cancer cell lines used in the cytotoxic assays were acquired from the American Tissue Culture Collection (ATCC) (Manassas, VA, USA) and maintained as described previously. The MRC-5 and BJ human fibroblasts were used as non-tumoral control cells. The (MRC-5 LD and BJ LD) are also human fibroblast cell lines resistant to doxorubicin. […] The Raji and Ramos cell lines correspond to B-cell leukemia. Other cells, such as U2OS, represent a child osteosarcoma, while HCT116 is a colorectal tumor cell line. (HCT116p53^−/−, Horizon Discovery Ltd., Cambridge, UK) is a similar cell line with its p53 gene knocked down, serving as a model of human cancer frequently associated with a poor prognosis. The cells were maintained in Nunc/corning 80 cm^2 plastic tissue culture flasks and cultured in a cell culture medium according to ATCC or Horizon recommendations (McCoy, DMEM/RPMI 1640 with 5 g/L glucose, 2 mM glutamine, 100 U/mL penicillin, […] streptomycin, 10% fetal calf serum, and NaHCO3). The compounds were freshly dissolved in DMSO. The final concentration of DMSO was 0.01% in the cell culture.
(§2) The in vitro cytotoxicity of compounds (1–7) was assessed using the standard 3-(4,5-dimethyl-thiazol-2yl)-5-(3-carboxymethoxyphenyl)-2-(sulfophenyl)-2H-tetrazolium (MTS). The assay was performed at the Institute of Molecular and Translational Medicine using a robotic platform (High-ResBiosolutions, Beverly, MA, USA). Cell suspensions were prepared and diluted according to the specific cell type and the expected target cell density (25,000–35,000 cells/mL, based on cell growth characteristics). An automatic pipettor (30 μL) was used to add cells into 384-well microtiter plates. All tested compounds were dissolved in 100% DMSO, and four-fold dilutions of the intended test concentrations were added in 0.15 μL aliquots at time zero to the microtiter plate wells by the echo acoustic non-contact liquid handler Echo550 (Labcyte, San Jose, CA, USA). The assays were accomplished in technical duplicates and at least three biological replicates. The cells were incubated with the tested compound for 72 h at 37 °C in a 5% CO2 atmosphere with 100% humidity. At the end of the incubation period, cells were assayed using the MTS test. Aliquots (5 μL) of the MTS stock solution were pipetted into each well and incubated for 1–4 h. After this incubation period, the optical density (OD) was measured at 490 nm using an Envision reader (PerkinElmer, Waltham, MA, USA). Tumor cell survival (TCS) was calculated using the following equation: TCS = (OD drug-exposed well/mean OD control wells) × 100%. The IC50 value, representing the concentration of the compound lethal to 50% of the tumor cells, was calculated from the corresponding dose-response curves using Dotmatics software (Updated version 2022, London, UK). After three days of incubation on the cancer cell lines and normal fibroblasts, the […] (IC50) were obtained. Five assays were performed for each cell line. The standard error of the assays was lower than 10%, as assessed by the triplicate assays.

RAMOS = assay: Cytotoxic MTS assay, Ramos; assay type: cell-based; details: Ramos, human leukemia cell line, 72 h, median of five assays
From the text: as §1, §2

MRC-5 = assay: Cytotoxic MTS assay, MRC-5 fibroblasts; assay type: cell-based; details: MRC5, human fibroblasts, 72 h, median of five assays
From the text: as §1, §2

MRC-5 LD = assay: Cytotoxic MTS assay, MRC-5 LD fibroblasts (doxorubicin-resistant); assay type: cell-based; details: MRC5, doxorubicin-resistant human fibroblasts, 72 h, median of five assays
From the text: as §1, §2

HCT116KO53 = assay: Cytotoxic MTS assay, HCT116 p53 knockout 2D; assay type: cell-based; details: HCT-116, human tumors 2D, 72 h, median of five assays
From the text: as §1, §2

| Compound | Peroxide formation (DCFDA) [1] | Caspase 9 activity, spheroid culture (caspase 9) | IC50 (CCRF-CEM) | IC50 (RAMOS) | IC50 (MRC-5) | IC50 (MRC-5 LD) | IC50 (HCT116KO53) | Caspase 9 activity, 2D culture (caspase 9) |
| --- | --- | --- | --- | --- | --- | --- | --- | --- |
| C=C1C(=O)C23CCC(C(=C)C)C(C)(CCC(=O)OC(C)=O)C2CCC1C3 (stereo not shown) [Compound 7, Caracasine-Acetic Anhydride] | most active | absence of caspase activity | 0.45 µM | 0.96 µM | 6.45 µM | 5.53 µM | 1.91 µM | – |
| C=C(C)C1CCC23CC(CCC2C1(C)CCC(=O)OC(C)=O)C(C)C3=O (single isomer, unassigned; ent-3) [Compound 6, Ent-3,4-Seco-15-Oxo-Kaur-4(19)-en-Acetic Anhydride] | did not induce peroxide formation | – | > 50 µM | > 50 µM | > 50 µM | > 50 µM | > 50 µM | did not induce caspase activity |
| C=C1C(=O)C23CCC(C(=C)C)C(C)(CCC(=O)OC)C2CCC1C3 (stereo not shown) [Compound 2, Caracasine] | least active | absence of caspase activity | 0.86 µM | 0.96 µM | 6.84 µM | 6.36 µM | 1.91 µM | – |
| C=C(C)C1CCC23CC(CCC2C1(C)CCC(=O)O)C(C)C3=O (single isomer, unassigned; ent-3) [Compound 5, Ent-3,4-Seco-15-Oxo-Kaur-4(19)-en-3-Oic Acid] | did not induce peroxide formation | – | > 50 µM | > 50 µM | > 50 µM | > 50 µM | > 50 µM | did not induce caspase activity |

Reference: article PMC12298629, “New Derivatives of Caracasine Acid with Anti-Leukemic Activity and Limited Effectiveness in Spheroid Cultures” (Pharmaceuticals, 2025)
